Measured values: publication PMC11743026, “Cortisol regulates neonatal lung development via Smoothened” (Respiratory Research, 2025)

How the values were obtained:
Smoothened (SMO) [1] = target: T1, Smoothened (SMO) (Homo sapiens, UniProt Q99835, L112A); test: pull-down of purified L112A SMO or CRD on biotinylated cholesterol beads; type: binding
T1 construct: purified L112A SMO; also the L112A CRD fragment

Smoothened (SMO) [2] = target: T2, Smoothened (SMO) (Homo sapiens, UniProt Q99835, Y394F); test: pull-down of purified Y394F SMO on biotinylated cholesterol beads; type: binding
T2 construct: purified Y394F SMO
T2 sequence (Q99835 28-787 Y394F): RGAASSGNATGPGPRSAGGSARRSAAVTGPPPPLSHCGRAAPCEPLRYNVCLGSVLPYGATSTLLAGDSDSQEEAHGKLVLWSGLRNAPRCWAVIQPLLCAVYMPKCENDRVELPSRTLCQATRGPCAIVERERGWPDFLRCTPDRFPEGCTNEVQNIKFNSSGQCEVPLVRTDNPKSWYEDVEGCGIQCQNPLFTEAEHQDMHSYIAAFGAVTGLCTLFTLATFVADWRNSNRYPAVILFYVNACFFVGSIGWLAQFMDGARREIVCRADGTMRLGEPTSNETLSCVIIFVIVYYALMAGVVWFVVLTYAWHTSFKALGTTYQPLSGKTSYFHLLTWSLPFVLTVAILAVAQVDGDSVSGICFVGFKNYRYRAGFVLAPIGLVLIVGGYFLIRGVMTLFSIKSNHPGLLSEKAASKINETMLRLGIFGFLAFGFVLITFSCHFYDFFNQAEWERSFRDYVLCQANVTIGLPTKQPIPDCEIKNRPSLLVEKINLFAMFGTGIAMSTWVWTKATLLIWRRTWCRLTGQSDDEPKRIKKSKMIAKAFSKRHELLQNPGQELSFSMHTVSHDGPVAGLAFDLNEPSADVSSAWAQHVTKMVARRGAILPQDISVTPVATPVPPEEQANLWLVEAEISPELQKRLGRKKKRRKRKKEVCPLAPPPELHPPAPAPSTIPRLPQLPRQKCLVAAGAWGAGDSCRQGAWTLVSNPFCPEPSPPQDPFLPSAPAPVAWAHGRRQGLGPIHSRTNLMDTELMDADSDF

Smoothened (SMO) [3] = target: T2, Smoothened (SMO); test: free cortisol competes with biotinylated cholesterol beads for purified Y394F SMO; type: binding
Smoothened (SMO) [4] = target: T3, Smoothened (SMO) (Homo sapiens, UniProt Q99835); test: Asp-evoked current in HeLa cells expressing WT SMO; effect lost with L112A; type: cell-based
T3 construct: full-length SMO expressed in HeLa cells
T3 sequence (Q99835 28-787): as the sequence (Q99835 28-787 Y394F) above, with F367Y counted along it

T1 sequence (Q99835 28-787 L112A): as the sequence (Q99835 28-787 Y394F) above, with L85A, F367Y counted along it

**Q.** For `CC(C)CCC[C@@H](C)[C@H]1CC[C@H]2[C@@H]3CC=C4C[C@@H](O)CC[C@]4(C)[C@H]3CC[C@]12C` [Chol, cholesterol], which “pull-down of purified L112A SMO or CRD on biotinylated cholesterol beads” value (Smoothened (SMO) [1]) is on record?
**A.** The CB remained binding to the purified WT and L112A SMO

**Q.** And the “pull-down of purified Y394F SMO on biotinylated cholesterol beads” value (Smoothened (SMO) [2])?
**A.** mutation of the Y394 to F394 did not change CB binding to the SMO

**Q.** `C[C@]12CCC(=O)C=C1CC[C@@H]1[C@@H]2[C@@H](O)C[C@@]2(C)[C@H]1CC[C@]2(O)C(=O)CO` [Cort, cortisol] was tested. Which “free cortisol competes with biotinylated cholesterol beads for purified Y394F SM” value (Smoothened (SMO) [3]) did it give?
**A.** cortisol remained inhibiting the CB binding to the mutated SMO in a dose-dependent manner

**Q.** For `C[C@]12C[C@H](O)[C@H]3[C@@H](CCC4=CC(=O)CC[C@@]43C)[C@@H]1CC[C@@H]2C(=O)CO` [corticosterone], which “Asp-evoked current in HeLa cells expressing WT SMO; effect lost with L112A” value (Smoothened (SMO) [4]) is on record?
**A.** The corticosterone inhibition was not observed in the L112A mutant SMO cells
